Measurements reported in paper PMC5666424, “Marine-Derived 2-Aminoimidazolone Alkaloids. Leucettamine B-Related Polyandrocarpamines Inhibit Mammalian and Protozoan DYRK & CLK Kinases” (Marine Drugs, 2017).

Key:
CLK1 = CLK1 (Homo sapiens, UniProt P49759); assay: KinomeScan; format: binding; details: 1 μM
DYRK1A = DYRK1A (Homo sapiens, UniProt Q13627); assay: Thr286-cyclin D1 phosphorylation in SH-SY5Y cells; format: cell-based; design: expressed in transfected cells; host or cells: SH-SY5Y neuroblastoma cells, doxycycline-inducible (gift from Dr. Walter Becker); details: 30 μM, 24 h
Protocol: Cell treatments. SH-SY5Y cells conditionally expressing human DYRK1A [36], under the control of doxycycline (gift from Dr. Walter Becker) were cultured Dulbecco’s Modified Eagle Medium (DMEM): Nutrient Mixture F-12 (DMEM/F-12, Gibco, c/o Invitrogen, Saint Aubin, France) containing 1% Penicillin Streptomycin mixture (Gibco) and 10% fetal bovine serum (FBS, Gibco) in a humidified, 5% CO2 incubator at 37 °C. Cells were split routinely once a week. They were first rinsed with phosphate buffered saline (PBS, Gibco) and detached from the plate bottom using 2 mL Trypsin (Gibco) at 37 °C for 3–4 min. Eight mL of fresh medium were added to the cell suspension and the mix was centrifuged for 3 min at 1000 rpm. The cell pellet was resuspended in fresh medium before seeding (½ dilution) in new 150 mm plates. First, 1 μg/mL doxycycline was used to induce DYRK1A expression and cells were incubated 24 h in a humidified, 5% CO2 incubator at 37 °C. Drugs (0, 3 or 30 μM final) were then added with a final concentration of 0.1% DMSO and cells were incubated for an additional 24 h in a humidified, 5% CO2 incubator at 37 °C. Afterwards, cells were scrapped in medium and centrifuged for 5 min at 3000 rpm at 4 °C. The pellets were washed twice with PBS, centrifuge for 5 min at 10,000 g at 4 °C, snap-frozen in liquid nitrogen and kept at −80 °C.
Western blot analysis. […]

FGFR4 = biological target: T1, FGFR4 (Homo sapiens, UniProt P22455); assay: KinomeScan; format: binding; details: 1 μM
T1 construct: purchased DiscoverX (KINOMEscan)
T1 sequence (P22455 22-802): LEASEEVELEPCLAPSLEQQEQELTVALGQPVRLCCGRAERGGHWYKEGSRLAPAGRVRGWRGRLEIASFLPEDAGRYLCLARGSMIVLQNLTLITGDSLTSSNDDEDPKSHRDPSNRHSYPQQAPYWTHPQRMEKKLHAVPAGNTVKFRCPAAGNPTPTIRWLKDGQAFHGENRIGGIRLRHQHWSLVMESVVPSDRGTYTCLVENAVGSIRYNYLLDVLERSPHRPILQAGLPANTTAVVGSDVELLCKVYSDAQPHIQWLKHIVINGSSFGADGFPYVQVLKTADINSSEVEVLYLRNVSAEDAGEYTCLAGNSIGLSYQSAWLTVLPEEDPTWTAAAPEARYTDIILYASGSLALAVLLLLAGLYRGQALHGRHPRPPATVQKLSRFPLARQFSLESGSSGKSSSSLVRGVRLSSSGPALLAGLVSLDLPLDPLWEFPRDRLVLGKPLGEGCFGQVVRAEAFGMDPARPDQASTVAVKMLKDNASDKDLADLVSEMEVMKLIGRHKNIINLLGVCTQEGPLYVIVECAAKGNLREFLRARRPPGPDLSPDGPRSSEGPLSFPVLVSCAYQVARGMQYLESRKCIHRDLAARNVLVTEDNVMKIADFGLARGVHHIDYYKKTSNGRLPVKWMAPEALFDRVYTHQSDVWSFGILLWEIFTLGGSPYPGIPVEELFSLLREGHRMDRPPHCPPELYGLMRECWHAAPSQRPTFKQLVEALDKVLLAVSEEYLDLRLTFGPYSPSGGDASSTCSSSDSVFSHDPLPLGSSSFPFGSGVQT

[1] = biological target: T2, ABL1(F317I)-phosphorylated (Homo sapiens, UniProt P00519, F317I); assay: KinomeScan; format: binding; details: 1 μM
T2 construct: purchased DiscoverX (KINOMEscan)

LKB1 = biological target: T3, LKB1 (Homo sapiens, UniProt Q15831); assay: KinomeScan; format: binding; details: 1 μM
T3 construct: purchased DiscoverX (KINOMEscan)
T3 sequence (Q15831 whole entry): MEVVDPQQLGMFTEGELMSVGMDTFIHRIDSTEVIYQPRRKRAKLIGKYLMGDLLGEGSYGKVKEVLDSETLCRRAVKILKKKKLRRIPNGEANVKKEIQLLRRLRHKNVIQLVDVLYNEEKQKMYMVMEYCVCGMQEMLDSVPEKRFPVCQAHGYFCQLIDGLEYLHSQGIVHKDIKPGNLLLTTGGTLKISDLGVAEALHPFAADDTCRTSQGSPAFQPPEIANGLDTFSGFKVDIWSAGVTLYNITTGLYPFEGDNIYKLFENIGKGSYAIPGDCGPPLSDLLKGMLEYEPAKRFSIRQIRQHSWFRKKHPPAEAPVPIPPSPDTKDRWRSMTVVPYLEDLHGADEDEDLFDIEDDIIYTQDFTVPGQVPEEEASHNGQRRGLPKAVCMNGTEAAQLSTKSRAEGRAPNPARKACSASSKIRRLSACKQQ

KIT(D816V) = biological target: T4, KIT(D816V) (Homo sapiens, UniProt P10721, D816V); assay: KinomeScan; format: binding; details: 1 μM
T4 construct: purchased DiscoverX (KINOMEscan)
T4 sequence (P10721 26-976 D816V): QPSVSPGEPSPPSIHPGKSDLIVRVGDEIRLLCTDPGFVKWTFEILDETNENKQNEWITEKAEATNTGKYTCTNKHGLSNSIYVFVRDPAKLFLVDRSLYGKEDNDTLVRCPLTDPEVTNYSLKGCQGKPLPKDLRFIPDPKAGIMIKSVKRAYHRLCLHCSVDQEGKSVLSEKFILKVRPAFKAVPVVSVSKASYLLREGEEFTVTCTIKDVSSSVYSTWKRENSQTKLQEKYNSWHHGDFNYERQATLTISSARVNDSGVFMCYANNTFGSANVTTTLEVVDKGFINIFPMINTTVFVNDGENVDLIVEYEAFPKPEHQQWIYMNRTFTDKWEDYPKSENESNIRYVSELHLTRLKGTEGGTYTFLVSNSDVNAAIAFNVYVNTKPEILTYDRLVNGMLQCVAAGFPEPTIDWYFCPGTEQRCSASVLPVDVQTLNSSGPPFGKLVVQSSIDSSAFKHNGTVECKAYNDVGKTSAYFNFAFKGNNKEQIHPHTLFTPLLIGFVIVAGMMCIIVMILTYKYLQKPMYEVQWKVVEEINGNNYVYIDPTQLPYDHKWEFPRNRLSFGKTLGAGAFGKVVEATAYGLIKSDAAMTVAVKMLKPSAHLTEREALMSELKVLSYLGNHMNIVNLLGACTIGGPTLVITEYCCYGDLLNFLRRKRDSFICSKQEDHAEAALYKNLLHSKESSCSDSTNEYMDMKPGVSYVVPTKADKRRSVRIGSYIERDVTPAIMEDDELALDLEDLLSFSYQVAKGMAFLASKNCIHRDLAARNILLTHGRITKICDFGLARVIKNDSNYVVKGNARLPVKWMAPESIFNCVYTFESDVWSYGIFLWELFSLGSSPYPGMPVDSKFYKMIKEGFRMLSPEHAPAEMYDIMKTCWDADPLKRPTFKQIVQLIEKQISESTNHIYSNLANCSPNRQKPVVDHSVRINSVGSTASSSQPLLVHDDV

CAMKK1 = biological target: T5, CAMKK1 (Homo sapiens, UniProt Q8N5S9); assay: KinomeScan; format: binding; details: 1 μM
T5 construct: purchased DiscoverX (KINOMEscan)

VEGFR2 = biological target: T6, VEGFR2 (Homo sapiens, UniProt P35968); assay: KinomeScan; format: binding; details: 1 μM
T6 construct: purchased DiscoverX (KINOMEscan)

MAP4K2 = biological target: T7, MAP4K2 (Homo sapiens, UniProt Q12851); assay: KinomeScan; format: binding; details: 1 μM
T7 construct: purchased DiscoverX (KINOMEscan)
T7 sequence (Q12851 whole entry): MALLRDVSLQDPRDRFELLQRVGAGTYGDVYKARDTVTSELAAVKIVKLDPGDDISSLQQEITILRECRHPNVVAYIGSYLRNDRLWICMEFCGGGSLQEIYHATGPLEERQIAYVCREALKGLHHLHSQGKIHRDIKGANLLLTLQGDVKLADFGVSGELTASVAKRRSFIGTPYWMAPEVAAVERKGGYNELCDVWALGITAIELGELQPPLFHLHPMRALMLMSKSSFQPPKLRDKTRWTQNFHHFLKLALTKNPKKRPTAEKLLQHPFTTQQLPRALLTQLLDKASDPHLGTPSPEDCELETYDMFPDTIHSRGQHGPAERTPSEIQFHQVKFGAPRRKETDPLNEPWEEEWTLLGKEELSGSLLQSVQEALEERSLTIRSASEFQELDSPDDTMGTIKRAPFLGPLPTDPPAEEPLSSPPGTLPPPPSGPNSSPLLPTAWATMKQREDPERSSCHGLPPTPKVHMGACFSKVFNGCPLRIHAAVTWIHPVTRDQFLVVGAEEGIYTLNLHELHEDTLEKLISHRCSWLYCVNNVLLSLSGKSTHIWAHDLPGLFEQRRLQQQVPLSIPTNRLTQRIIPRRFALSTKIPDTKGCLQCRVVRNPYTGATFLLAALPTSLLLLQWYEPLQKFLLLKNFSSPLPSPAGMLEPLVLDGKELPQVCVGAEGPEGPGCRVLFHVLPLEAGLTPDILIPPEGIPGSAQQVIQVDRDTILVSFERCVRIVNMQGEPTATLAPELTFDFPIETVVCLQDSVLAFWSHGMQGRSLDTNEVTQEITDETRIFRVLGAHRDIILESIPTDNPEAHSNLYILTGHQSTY

TIE1 = biological target: T8, TIE1 (Homo sapiens, UniProt P35590); assay: KinomeScan; format: binding; details: 1 μM
T8 construct: purchased DiscoverX (KINOMEscan)
T8 sequence (P35590 22-1138): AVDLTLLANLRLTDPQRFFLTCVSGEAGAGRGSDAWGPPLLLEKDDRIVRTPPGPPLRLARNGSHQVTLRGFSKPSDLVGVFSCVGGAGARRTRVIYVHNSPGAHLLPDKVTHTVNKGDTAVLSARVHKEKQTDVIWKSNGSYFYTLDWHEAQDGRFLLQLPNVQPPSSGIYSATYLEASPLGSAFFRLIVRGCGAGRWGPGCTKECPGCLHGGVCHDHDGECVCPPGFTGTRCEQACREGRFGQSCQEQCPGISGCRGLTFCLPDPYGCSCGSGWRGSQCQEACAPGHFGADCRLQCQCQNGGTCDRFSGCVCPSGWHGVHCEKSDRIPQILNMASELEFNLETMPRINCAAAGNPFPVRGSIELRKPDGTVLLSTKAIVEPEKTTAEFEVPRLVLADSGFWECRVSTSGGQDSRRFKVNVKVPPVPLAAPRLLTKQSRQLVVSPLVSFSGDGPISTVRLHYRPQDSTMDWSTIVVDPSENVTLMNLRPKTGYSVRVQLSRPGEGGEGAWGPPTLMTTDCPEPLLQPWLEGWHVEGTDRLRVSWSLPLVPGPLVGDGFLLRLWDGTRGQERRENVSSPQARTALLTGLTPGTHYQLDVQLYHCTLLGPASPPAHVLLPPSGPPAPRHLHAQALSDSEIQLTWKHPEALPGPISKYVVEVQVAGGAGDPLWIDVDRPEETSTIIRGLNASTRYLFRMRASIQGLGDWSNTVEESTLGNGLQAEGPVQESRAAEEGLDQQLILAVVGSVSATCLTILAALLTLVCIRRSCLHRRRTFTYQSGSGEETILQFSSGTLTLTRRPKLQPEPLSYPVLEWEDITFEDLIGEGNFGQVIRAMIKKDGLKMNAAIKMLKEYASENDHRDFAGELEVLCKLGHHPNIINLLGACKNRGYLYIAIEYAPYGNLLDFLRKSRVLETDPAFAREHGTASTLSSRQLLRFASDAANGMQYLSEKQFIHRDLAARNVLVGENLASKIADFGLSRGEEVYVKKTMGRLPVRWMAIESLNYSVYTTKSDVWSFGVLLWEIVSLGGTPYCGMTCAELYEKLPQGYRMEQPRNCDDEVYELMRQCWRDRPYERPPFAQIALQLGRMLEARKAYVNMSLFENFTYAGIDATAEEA

KIT(D816H) = biological target: T9, KIT(D816H) (Homo sapiens, UniProt P10721, D816H); assay: KinomeScan; format: binding; details: 1 μM
T9 construct: purchased DiscoverX (KINOMEscan)
T9 sequence (P10721 26-976 D816H): as the sequence (P10721 26-976 D816V) above, with V791H counted along it

SLK = biological target: T10, SLK (Homo sapiens, UniProt Q9H2G2); assay: KinomeScan; format: binding; details: 1 μM
T10 construct: purchased DiscoverX (KINOMEscan)

FLT3(ITD) = assay: KinomeScan; format: binding, human; details: 1 μM
Protocol: (§1) Assays were performed essentially as described previously. For most assays, kinase-tagged T7 phage strains were grown in parallel in 24-well blocks in an E. coli host derived from the BL21 strain. E. coli were grown to log-phase and infected with T7 phage from a frozen stock (multiplicity of infection ~0.1) and incubated with shaking at 32 °C until lysis (~90 min). The lysates were centrifuged (6000× g) and filtered (0.2 μm) to remove cell debris. The remaining kinases were produced in HEK-293 cells and subsequently tagged with DNA for qPCR detection. […] The liganded beads were blocked with excess biotin and washed with blocking buffer (SeaBlock (Pierce, ThermoFisher Scientific, Illkirch, France), 1% BSA, 0.05% Tween 20, 1 mM DTT) to remove unbound ligand and to reduce non-specific phage binding. […] An 11-point threefold serial dilution of each test compound was prepared in 100% DMSO at 100× final test concentration which and subsequently diluted to 1× in the assay. All reactions were performed in polystyrene 96-well plates in a final volume of 0.135 mL. […] The kinase concentration in the eluates was measured by qPCR.

EGFR(L747-T751del,Sins) = assay: KinomeScan; format: binding, human; details: 1 μM
Protocol: as §1

Chain of CLK1 (P49759 whole entry): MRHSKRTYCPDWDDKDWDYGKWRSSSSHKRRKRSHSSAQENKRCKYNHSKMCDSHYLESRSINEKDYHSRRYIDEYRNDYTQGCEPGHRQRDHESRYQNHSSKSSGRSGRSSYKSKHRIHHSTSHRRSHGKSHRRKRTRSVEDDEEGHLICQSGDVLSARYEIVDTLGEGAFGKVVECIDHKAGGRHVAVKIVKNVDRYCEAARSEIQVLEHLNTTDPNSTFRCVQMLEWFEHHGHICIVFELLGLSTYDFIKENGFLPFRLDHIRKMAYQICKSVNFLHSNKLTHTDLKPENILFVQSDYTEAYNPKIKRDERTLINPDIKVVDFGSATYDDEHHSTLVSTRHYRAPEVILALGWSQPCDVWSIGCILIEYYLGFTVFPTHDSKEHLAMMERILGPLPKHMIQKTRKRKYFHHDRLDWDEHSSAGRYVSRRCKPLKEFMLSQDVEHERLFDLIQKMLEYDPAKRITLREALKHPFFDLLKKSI

COc1cc(/C=C2\N=C(N)NC2=O)ccc1O [Polyandrocarpamine A]
Score (CLK1): 32 | Phosphorylation of cyclin D1 at Thr286 (DYRK1A): partially inhibited | Score (FGFR4): 98 | Score [1]: 86 | Score (LKB1): 100 | Score (KIT(D816V)): 100 | Score (CAMKK1): 100 | Score (VEGFR2): 100 | Score (MAP4K2): 97 | Score (TIE1): 81 | Score (KIT(D816H)): 100 | Score (SLK): 100 | Score (FLT3(ITD)): 100 | Score (EGFR(L747-T751del,Sins)): 92
